Measured values from US11149037B2, “Pyrazole MAGL inhibitors” (H. Lundbeck A/S, priority 2017, dated 2021).

What was measured:
Type in all cases: biochemical
[1] = target: FAAH (Homo sapiens (Human), UniProt O00519); test: In vitro competitive activity-based protein profiling, human proteomes (prefrontal cortex or PC3 cell membrane fractions); conditions: human proteome; for inhibition at 1 µM: read-out: FAAH % inh. 1 μM (human)
How it was run: (§1)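 Activity of MAGL and FAAH was quantified from fluorescent gel band intensities. Beforehand, inhibitors at several concentrations competed against subsequent probe labelling (FP-Rh, JW912 or HT-01) in species-matched proteomes, each step 30 min at 37° C.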

[2] = target: MAGL (Homo sapiens (Human), UniProt Q99685); test: as above; conditions: human proteome; for inhibition at 1 µM: read-out: MAGL % inh. 1 μM (human)
Chain of MAGL (Homo sapiens (Human), UniProt Q99685) (Q99685 whole entry): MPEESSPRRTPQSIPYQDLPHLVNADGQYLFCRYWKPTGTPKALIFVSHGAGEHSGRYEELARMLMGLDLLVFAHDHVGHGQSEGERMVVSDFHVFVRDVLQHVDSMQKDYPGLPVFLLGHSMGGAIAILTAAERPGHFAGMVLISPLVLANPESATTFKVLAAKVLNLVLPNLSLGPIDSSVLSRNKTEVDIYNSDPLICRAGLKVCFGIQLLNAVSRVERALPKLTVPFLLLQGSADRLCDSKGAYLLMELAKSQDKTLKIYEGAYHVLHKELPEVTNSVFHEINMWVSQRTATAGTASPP
How it was run: as §1

[3] = target: FAAH (Mus musculus (Mouse), UniProt O08914); test: In vitro competitive activity-based protein profiling, mouse proteomes (brain membrane fraction or cell lysates); conditions: mouse proteome, read-out: FAAH % inh. 1 μM (mouse)
Chain of FAAH (Mus musculus (Mouse), UniProt O08914) (O08914 whole entry): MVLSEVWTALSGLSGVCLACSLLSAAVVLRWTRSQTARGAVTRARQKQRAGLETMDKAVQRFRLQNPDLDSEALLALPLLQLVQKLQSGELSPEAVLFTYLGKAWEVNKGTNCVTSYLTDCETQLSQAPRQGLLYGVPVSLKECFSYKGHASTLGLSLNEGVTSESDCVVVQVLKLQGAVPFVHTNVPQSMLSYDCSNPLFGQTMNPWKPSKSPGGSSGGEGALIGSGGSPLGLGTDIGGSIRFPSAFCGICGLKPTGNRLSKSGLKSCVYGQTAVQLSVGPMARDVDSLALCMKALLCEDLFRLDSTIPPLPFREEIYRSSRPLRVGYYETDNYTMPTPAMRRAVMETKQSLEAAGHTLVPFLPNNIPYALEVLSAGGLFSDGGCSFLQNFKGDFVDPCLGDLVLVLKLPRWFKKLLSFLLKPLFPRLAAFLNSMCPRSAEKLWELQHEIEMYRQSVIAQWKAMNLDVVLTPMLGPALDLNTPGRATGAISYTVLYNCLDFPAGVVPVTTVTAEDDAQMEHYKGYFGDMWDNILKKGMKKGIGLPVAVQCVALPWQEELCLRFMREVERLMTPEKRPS
How it was run: as §1

[4] = target: MAGL (Mus musculus (Mouse), UniProt O35678); test: as above; conditions: mouse proteome, read-out: MAGL % inh. 1 μM (mouse)
Chain of MAGL (Mus musculus (Mouse), UniProt O35678) (O35678 whole entry): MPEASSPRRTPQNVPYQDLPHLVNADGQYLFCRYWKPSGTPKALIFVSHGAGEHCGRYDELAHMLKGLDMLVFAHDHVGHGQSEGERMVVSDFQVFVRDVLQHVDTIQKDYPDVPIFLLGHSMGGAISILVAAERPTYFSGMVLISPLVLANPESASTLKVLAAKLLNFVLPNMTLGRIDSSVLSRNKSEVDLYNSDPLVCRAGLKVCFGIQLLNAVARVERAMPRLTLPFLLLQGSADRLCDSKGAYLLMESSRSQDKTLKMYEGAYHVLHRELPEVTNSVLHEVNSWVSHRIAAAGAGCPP
How it was run: as §1

Chain of FAAH (Homo sapiens (Human), UniProt O00519) (O00519 whole entry): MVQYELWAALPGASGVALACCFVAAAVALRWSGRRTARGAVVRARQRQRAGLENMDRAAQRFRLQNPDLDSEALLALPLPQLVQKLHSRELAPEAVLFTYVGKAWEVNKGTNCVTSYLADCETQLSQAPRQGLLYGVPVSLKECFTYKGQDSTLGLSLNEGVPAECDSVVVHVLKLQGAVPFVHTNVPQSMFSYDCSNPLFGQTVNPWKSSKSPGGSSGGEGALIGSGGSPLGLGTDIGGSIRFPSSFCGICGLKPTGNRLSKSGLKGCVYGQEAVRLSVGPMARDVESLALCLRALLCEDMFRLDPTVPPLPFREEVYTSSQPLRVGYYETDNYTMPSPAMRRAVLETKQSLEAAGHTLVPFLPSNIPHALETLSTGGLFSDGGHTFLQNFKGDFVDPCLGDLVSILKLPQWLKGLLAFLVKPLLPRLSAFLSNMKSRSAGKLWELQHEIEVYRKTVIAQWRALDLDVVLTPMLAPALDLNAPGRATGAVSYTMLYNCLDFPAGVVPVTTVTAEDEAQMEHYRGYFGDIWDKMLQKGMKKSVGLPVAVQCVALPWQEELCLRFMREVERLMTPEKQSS

Row | inhibition at 1 µM [1] | inhibition at 1 µM [2] | inhibition at 1 µM [3] | inhibition at 1 µM [4] | IC50 [1] | IC50 [2] | inhibition at 50 µM ([2]; 50 μM, read-out: MAGL % inh. (human) @ 50 μM) | Structure (SMILES)
1 | 0 to 25% | > 75% | 0 to 25% | 0 to 25% | – | – | – | CN(Cc1ccc(Cl)c(N2CC3COCC3C2)c1)C1(C)CCN(C(=O)n2ccc(NS(C)(=O)=O)n2)CC1 (centres unmarked) [Example 26, N-(1-(4-((4-Chloro-3-(tetrahydro-1H-furo[3,4-c]pyrrol-5(3H)-yl)benzyl)(methyl)amino)-4-methylpiperidine-1-carbonyl)-1H-pyrazol-3-yl)methanesulfonamide]
2 | 0 to 25% | 50 to 75% | 0 to 25% | 0 to 25% | – | – | – | CN(Cc1ccc(C(F)(F)F)cc1NCC(=O)O)C1(C)CCN(C(=O)n2ccc(NS(C)(=O)=O)n2)CC1 [Example 102, (2-((Methyl(4-methyl-1-(3-(methylsulfonamido)-1H-pyrazole-1-carbonyl)piperidin-4-yl)amino)methyl)-5-(trifluoromethyl)phenyl)glycine]
3 | > 75% | > 75% | > 75% | > 75% | 0.1 to 1 µM | < 0.1 µM | – | CN(Cc1cc(Cl)ccc1C(F)(F)F)[C@H]1C[C@@H]2CN(C(=O)n3ccc(NS(C)(=O)=O)n3)C[C@@H]2C1 [Example 51, N-(1-((3aR,5r,6aS)-5-((5-Chloro-2-(trifluoromethyl)benzyl)(methyl)amino)octahydrocyclopenta[c]pyrrole-2-carbonyl)-1H-pyrazol-3-yl)methanesulfonamide]
4 | 0 to 25% | > 75% | 0 to 25% | > 75% | – | – | – | CS(=O)(=O)Nc1ccn(C(=O)N2CCN(Cc3cc4ccccc4s3)CC2)n1 [Example 54, N-(1-(4-(Benzo[b]thiophen-2-ylmethyl)piperazine-1-carbonyl)-1H-pyrazol-3-yl)methanesulfonamide]
5 | 0 to 25% | > 75% | 0 to 25% | > 75% | – | – | – | CN(c1ccc(C(F)(F)F)cc1N1CCCC1)C1CCN(C(=O)n2ccc(NS(C)(=O)=O)n2)CC1 [Example 19, N-(1-(4-(methyl(2-(pyrrolidin-1-yl)-4-(trifluoromethyl)phenyl)amino)piperidine-1-carbonyl)-1H-pyrazol-3-yl)methanesulfonamide]
6 | 0 to 25% | > 75% | 0 to 25% | > 75% | – | – | – | Cc1cc(CN2CCCC23CCN(C(=O)n2ccc(NC(=O)C4CC4)n2)CC3)ccc1Cl [Example 83, N-(1-(1-(4-Chloro-3-methylbenzyl)-1,8-diazaspiro[4.5]decane-8-carbonyl)-1H-pyrazol-3-yl)cyclopropanecarboxamide]
7 | 0 to 25% | > 75% | 0 to 25% | > 75% | – | – | – | CN(Cc1ccc(C(F)(F)F)c(N2CCC(F)CC2)c1)C1(C)CCN(C(=O)n2ccc(NS(C)(=O)=O)n2)CC1 [Example 2, N-(1-(4-((3-(4-fluoropiperidin-1-yl)-4-(trifluoromethyl)benzyl)(methyl)amino)-4-methylpiperidine-1-carbonyl)-1H-pyrazol-3-yl)methanesulfonamide]
8 | 0 to 25% | > 75% | 0 to 25% | > 75% | – | – | – | CS(=O)(=O)Nc1ccn(C(=O)N2CCN(Cc3cc4cc(Cl)ccc4s3)CC2)n1 [Example 66, N-(1-(4-((5-Chlorobenzo[b]thiophen-2-yl)methyl)piperazine-1-carbonyl)-1H-pyrazol-3-yl)methanesulfonamide]
9 | 0 to 25% | > 75% | > 75% | > 75% | – | – | – | CC(=O)Nc1ccn(C(=O)N2CCC3(CCCN3C(=O)c3cc4ccc(C(F)(F)F)cc4s3)CC2)n1 [Example 155, N-(1-(1-(6-(Trifluoromethyl)benzo[b]thiophene-2-carbonyl)-1,8-diazaspiro[4.5]decane-8-carbonyl)-1H-pyrazol-3-yl)acetamide]
10 | 25 to 50% | > 75% | > 75% | > 75% | – | – | – | CC(=O)Nc1ccn(C(=O)N2CC3CN(Cc4cccc(OC(F)(F)F)c4)CC3C2)n1 (centres unmarked) [Example 113, N-(1-(5-(3-(Trifluoromethoxy)benzyl)octahydropyrrolo[3,4-c]pyrrole-2-carbonyl)-1H-pyrazol-3-yl)acetamide]
11 | 0 to 25% | > 75% | 0 to 25% | > 75% | – | – | – | CS(=O)(=O)Nc1ccn(C(=O)N2CCN(Cc3cc4ccccc4[nH]3)CC2)n1 [Example 55, N-(1-(4-((1H-Indol-2-yl)methyl)piperazine-1-carbonyl)-1H-pyrazol-3-yl)methanesulfonamide]
12 | 0 to 25% | – | 0 to 25% | 0 to 25% | – | – | 25 to 50% | CS(=O)(=O)Nc1ccn(C(=O)N2CCC3(CCN(Cc4ccc(N5CCCC5)cc4C(F)(F)F)C3)CC2)n1 [Example 48, N-(1-(2-(4-(Pyrrolidin-1-yl)-2-(trifluoromethyl)benzyl)-2,8-diazaspiro[4.5]decane-8-carbonyl)-1H-pyrazol-3-yl)methanesulfonamide]
13 | 0 to 25% | > 75% | 0 to 25% | > 75% | – | – | – | CS(=O)(=O)Nc1ccn(C(=O)N2CCC3(CCN(Cc4cc(N5CCCC5)cc(C(F)(F)F)c4)C3)CC2)n1 [Example 64, N-(1-(2-(3-(Pyrrolidin-1-yl)-5-(trifluoromethyl)benzyl)-2,8-diazaspiro[4.5]decane-8-carbonyl)-1H-pyrazol-3-yl)methanesulfonamide]
14 | 0 to 25% | > 75% | 0 to 25% | > 75% | – | – | – | Cc1c(CN2CCN(C(=O)n3ccc(NS(C)(=O)=O)n3)CC2)sc2ccccc12 [Example 57, N-(1-(4-((3-Methylbenzo[b]thiophen-2-yl)methyl)piperazine-1-carbonyl)-1H-pyrazol-3-yl)methanesulfonamide]
15 | 0 to 25% | > 75% | 0 to 25% | > 75% | – | – | – | CC(=O)Nc1ccn(C(=O)N2CCC3(CCCN3C(=O)c3ccc(Cl)c(C)c3)CC2)n1 [Example 84, N-(1-(1-(4-Chloro-3-methylbenzoyl)-1,8-diazaspiro[4.5]decane-8-carbonyl)-1H-pyrazol-3-yl)acetamide]
16 | 0 to 25% | > 75% | 0 to 25% | > 75% | – | – | – | CC(=O)Nc1ccn(C(=O)N2CCN(Cc3ccc(C(N)=O)c(C(F)(F)F)c3)CC2)n1 [Example 123, 4-((4-(3-Acetamido-1H-pyrazole-1-carbonyl)piperazin-1-yl)methyl)-2-(trifluoromethyl)benzamide]
17 | – | – | > 75% | > 75% | 0.1 to 1 µM | < 0.1 µM | – | CC(=O)Nc1ccn(C(=O)N2CC3CN(Cc4cccc(Oc5ccccc5)c4)CC3C2)n1 (centres unmarked) [Example 173, N-(1-(5-(3-Phenoxybenzyl)octahydropyrrolo[3,4-c]pyrrole-2-carbonyl)-1H-pyrazol-3-yl)acetamide]
18 | 0 to 25% | > 75% | 0 to 25% | > 75% | – | – | – | CS(=O)(=O)Nc1ccn(C(=O)N2CCN(Cc3ccc(Cl)c(N4CC[C@@H](F)C4)c3)CC2)n1 [Example 122, (R)-N-(1-(4-(4-Chloro-3-(3-fluoropyrrolidin-1-yl)benzyl)piperazine-1-carbonyl)-1H-pyrazol-3-yl)methanesulfonamide]
19 | 0 to 25% | > 75% | 0 to 25% | > 75% | – | – | – | CS(=O)(=O)Nc1ccn(C(=O)N2CCN(Cc3ccc(Cl)c(N4CC5CN(C(N)=O)CC5C4)c3)CC2)n1 (centres unmarked) [Example 9, 5-(2-Chloro-5-((4-(3-(methylsulfonamido)-1H-pyrazole-1-carbonyl)piperazin-1-yl)methyl)phenyl)hexahydropyrrolo[3,4-c]pyrrole-2(1H)-carboxamide]
20 | 0 to 25% | > 75% | 0 to 25% | 50 to 75% | – | – | – | CS(=O)(=O)Nc1ccn(C(=O)N2CCN(Cc3ccncc3N3CCCC3)CC2)n1 [Example 82, N-(1-(4-((3-(Pyrrolidin-1-yl)pyridin-4-yl)methyl)piperazine-1-carbonyl)-1H-pyrazol-3-yl)methanesulfonamide]
21 | 0 to 25% | > 75% | 0 to 25% | > 75% | – | – | – | CS(=O)(=O)Nc1ccn(C(=O)N2CCC3(CCN(Cc4cc(Cl)cc(N5CCCC5)c4)C3)CC2)n1 [Example 68, N-(1-(2-(3-Chloro-5-(pyrrolidin-1-yl)benzyl)-2,8-diazaspiro[4.5]decane-8-carbonyl)-1H-pyrazol-3-yl)methanesulfonamide]

Row | Structure (SMILES) | inhibition at 1 µM [1] | inhibition at 1 µM [2] | inhibition at 1 µM [3] | inhibition at 1 µM [4] | IC50 [1] | IC50 [2] | inhibition at 50 µM ([2]; 50 μM, read-out: MAGL % inh. (human) @ 50 μM)
22 | CS(=O)(=O)Nc1ccn(C(=O)N2CCC3(CCN(Cc4ccc(C(F)(F)F)cc4N4C5CCC4COC5)C3)CC2)n1 [Example 74, N-(1-(2-(2-(3-Oxa-8-azabicyclo[3.2.1]octan-8-yl)-4-(trifluoromethyl)benzyl)-2,8-diazaspiro[4.5]decane-8-carbonyl)-1H-pyrazol-3-yl)methanesulfonamide] | 0 to 25% | > 75% | 0 to 25% | > 75% | 1 to 10 µM | < 0.1 µM | –
